Experimental data from patent publication US20240299385A1 (ReWind Therapeutics NV, priority 2021, published 2024).

Target: T1, human GPR17 receptor (Homo sapiens, UniProt Q13304)
T1 construct: host or cells: HEK-293
Assay: Calcium mobilization functional assay (Fluo-8, FLIPR TETRA) in HEK-293 hGPR17 (Gα-q assay)
Format: cell-based
Conditions: antagonism of MDL29,951 (~EC80) induced Ca2+ signal; cell line (HEK-293 hGPR17 or HEK-293 Suchi5 hGPR17) not given
How it was run: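 Fluo-8-loaded HEK-293 hGPR17 cells (60 min dye loading, room temperature) were preincubated with compound for twenty minutes, then challenged with agonist MDL29,951 at ~EC80, 500 nM. Intracellular calcium release via Gα-q was recorded as FLIPR fluorescence for a further 2 minutes; compounds tested in duplicate.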

T1 sequence (Q13304 whole entry): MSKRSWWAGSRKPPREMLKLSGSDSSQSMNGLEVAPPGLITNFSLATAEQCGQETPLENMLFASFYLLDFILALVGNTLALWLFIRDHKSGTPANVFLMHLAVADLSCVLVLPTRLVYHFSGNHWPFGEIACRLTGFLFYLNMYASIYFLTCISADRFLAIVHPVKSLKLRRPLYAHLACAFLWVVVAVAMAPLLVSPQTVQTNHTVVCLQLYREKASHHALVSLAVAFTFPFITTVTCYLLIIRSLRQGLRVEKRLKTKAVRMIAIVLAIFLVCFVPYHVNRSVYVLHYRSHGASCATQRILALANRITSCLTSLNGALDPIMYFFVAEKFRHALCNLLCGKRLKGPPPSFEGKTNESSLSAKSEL

Row | SMILES | IC50
1 | O=S(=O)(Nc1ccc(OC(F)F)nc1)c1c[nH]c(-c2ccccc2)c1 [Cpd 233, N-[6-(difluoromethoxy)-3-pyridyl]-5-phenyl-1H-pyrrole-3-sulfonamide] | 0.5 to 5 µM
2 | COCc1ccc(F)c(-c2cc(S(=O)(=O)Nc3cc(F)c(C(F)(F)F)cc3F)c[nH]2)c1 [Cpd 235, N-[2,5-difluoro-4-(trifluoromethyl)phenyl]-5-[2-fluoro-5-(methoxymethyl)phenyl]-1H-pyrrole-3-sulfonamide] | 0.5 to 5 µM
3 | N#Cc1ccc(NS(=O)(=O)c2c[nH]c(C3CC3)c2)c(F)c1 [Cpd 236, N-(4-cyano-2-fluoro-phenyl)-5-cyclopropyl-1H-pyrrole-3-sulfonamide] | 5 to 50 µM
4 | CCOc1cc(F)c(NS(=O)(=O)c2c[nH]c(-c3ccccn3)c2)cc1F [Cpd 237, N-(4-ethoxy-2,5-difluoro-phenyl)-5-(2-pyridyl)-1H-pyrrole-3-sulfonamide] | 0.5 to 5 µM
5 | O=S(=O)(Nc1ccc(OC(F)F)cc1F)c1c[nH]c(-c2ccccn2)c1 [Cpd 239, N-[4-(difluoromethoxy)-2-fluoro-phenyl]-5-(2-pyridyl)-1H-pyrrole-3-sulfonamide] | 0.5 to 5 µM
6 | CCOc1ccccc1-c1cc(S(=O)(=O)Nc2ccc(C#N)cc2F)c[nH]1 [Cpd 240, N-(4-cyano-2-fluoro-phenyl)-5-(2-ethoxyphenyl)-1H-pyrrole-3-sulfonamide] | 0.5 to 5 µM
7 | CC(C)Oc1cc(F)c(NS(=O)(=O)c2c[nH]c(-c3ccccn3)c2)cc1F [Cpd 241, N-(2,5-difluoro-4-isopropoxy-phenyl)-5-(2-pyridyl)-1H-pyrrole-3-sulfonamide] | 5 to 50 µM
8 | N#Cc1ccc(NS(=O)(=O)c2c[nH]cc2C2CCCC2)c(F)c1 [Cpd 242, N-(4-cyano-2-fluoro-phenyl)-4-cyclopentyl-1H-pyrrole-3-sulfonamide] | 5 to 50 µM
9 | O=S(=O)(Nc1cc(F)c(C(F)(F)F)cc1F)c1c[nH]c(-c2nccn2CC(F)(F)F)c1 [Cpd 243, N-[2,5-difluoro-4-(trifluoromethyl)phenyl]-5-[1-(2,2,2-trifluoroethyl)imidazol-2-yl]-1H-pyrrole-3-sulfonamide] | 5 to 50 µM
10 | O=C1CCCN1c1cc(S(=O)(=O)Nc2cc(F)c(C(F)(F)F)cc2F)c[nH]1 [Cpd 245, N-[2,5-difluoro-4-(trifluoromethyl)phenyl]-5-(2-oxopyrrolidin-1-yl)-1H-pyrrole-3-sulfonamide] | 5 to 50 µM
11 | COc1ccnc(F)c1-c1cc(S(=O)(=O)Nc2cc(F)c(C(F)(F)F)cc2F)c[nH]1 [Cpd 247, N-[2,5-difluoro-4-(trifluoromethyl)phenyl]-5-(2-fluoro-4-methoxy-3-pyridyl)-1H-pyrrole-3-sulfonamide] | 0.5 to 5 µM
12 | CCn1ccnc1-c1cc(S(=O)(=O)Nc2cc(F)c(C(F)(F)F)cc2F)c[nH]1 [Cpd 248, N-[2,5-difluoro-4-(trifluoromethyl)phenyl]-5-(1-ethylimidazol-2-yl)-1H-pyrrole-3-sulfonamide] | 0.5 to 5 µM
13 | Cc1c(F)cccc1-c1cc(S(=O)(=O)Nc2ccc(C#N)cc2F)c[nH]1 [Cpd 249, N-(4-cyano-2-fluoro-phenyl)-5-(3-fluoro-2-methyl-phenyl)-1H-pyrrole-3-sulfonamide] | 0.5 to 5 µM
14 | Cc1ccc(-c2cc(S(=O)(=O)Nc3ccc(C#N)cc3F)c[nH]2)c(Cl)c1 [Cpd 250, 5-(2-chloro-4-methyl-phenyl)-N-(4-cyano-2-fluoro-phenyl)-1H-pyrrole-3-sulfonamide] | 0.5 to 5 µM
15 | COc1ccc(-c2cc(S(=O)(=O)Nc3ccc(C#N)cc3F)c[nH]2)c(C)c1 [Cpd 251, N-(4-cyano-2-fluoro-phenyl)-5-(4-methoxy-2-methyl-phenyl)-1H-pyrrole-3-sulfonamide] | 5 to 50 µM
16 | Cc1cccc(-c2cc(S(=O)(=O)Nc3ccc(C#N)cc3F)c[nH]2)c1C [Cpd 252, N-(4-cyano-2-fluoro-phenyl)-5-(2,3-dimethylphenyl)-1H-pyrrole-3-sulfonamide] | 0.5 to 5 µM
17 | Cc1c(Cl)cccc1-c1cc(S(=O)(=O)Nc2ccc(C#N)cc2F)c[nH]1 [Cpd 253, 5-(3-chloro-2-methyl-phenyl)-N-(4-cyano-2-fluoro-phenyl)-1H-pyrrole-3-sulfonamide] | 0.5 to 5 µM
18 | Cc1ccc(Cl)c(-c2cc(S(=O)(=O)Nc3ccc(C#N)cc3F)c[nH]2)c1 [Cpd 254, 5-(2-chloro-5-methyl-phenyl)-N-(4-cyano-2-fluoro-phenyl)-1H-pyrrole-3-sulfonamide] | 0.5 to 5 µM
19 | Cc1cc(F)ccc1-c1cc(S(=O)(=O)Nc2ccc(C#N)cc2F)c[nH]1 [Cpd 255, N-(4-cyano-2-fluoro-phenyl)-5-(4-fluoro-2-methyl-phenyl)-1H-pyrrole-3-sulfonamide] | 0.5 to 5 µM
20 | COc1cc(-c2cc(S(=O)(=O)Nc3ccc(C#N)cc3F)c[nH]2)ccc1F [Cpd 259, N-(4-cyano-2-fluoro-phenyl)-5-(4-fluoro-3-methoxy-phenyl)-1H-pyrrole-3-sulfonamide] | 0.5 to 5 µM
21 | N#Cc1ccc(NS(=O)(=O)c2c[nH]c(-c3ccc(Cl)cc3Cl)c2)c(F)c1 [Cpd 261, N-(4-cyano-2-fluoro-phenyl)-5-(2,4-dichlorophenyl)-1H-pyrrole-3-sulfonamide] | 0.5 to 5 µM
22 | Cc1cc(Cl)ccc1-c1cc(S(=O)(=O)Nc2ccc(C#N)cc2F)c[nH]1 [Cpd 262, 5-(4-chloro-2-methyl-phenyl)-N-(4-cyano-2-fluoro-phenyl)-1H-pyrrole-3-sulfonamide] | 0.5 to 5 µM
23 | Cc1cccc(-c2cc(S(=O)(=O)Nc3ccc(C#N)cc3F)c[nH]2)c1Cl [Cpd 263, 5-(2-chloro-3-methyl-phenyl)-N-(4-cyano-2-fluoro-phenyl)-1H-pyrrole-3-sulfonamide] | 0.5 to 5 µM
24 | Cc1ccc(-c2cc(S(=O)(=O)Nc3ccc(C#N)cc3F)c[nH]2)cc1F [Cpd 264, N-(4-cyano-2-fluoro-phenyl)-5-(3-fluoro-4-methyl-phenyl)-1H-pyrrole-3-sulfonamide] | 0.5 to 5 µM
25 | COc1cccc(Cl)c1-c1cc(S(=O)(=O)Nc2ccc(C#N)cc2F)c[nH]1 [Cpd 265, 5-(2-chloro-6-methoxy-phenyl)-N-(4-cyano-2-fluoro-phenyl)-1H-pyrrole-3-sulfonamide] | 0.5 to 5 µM
26 | COc1cccc(-c2cc(S(=O)(=O)Nc3ccc(C#N)cc3F)c[nH]2)c1Cl [Cpd 266, 5-(2-chloro-3-methoxy-phenyl)-N-(4-cyano-2-fluoro-phenyl)-1H-pyrrole-3-sulfonamide] | 5 to 50 µM
27 | COc1ccc(C)c(-c2cc(S(=O)(=O)Nc3ccc(C#N)cc3F)c[nH]2)c1 [Cpd 268, N-(4-cyano-2-fluoro-phenyl)-5-(5-methoxy-2-methyl-phenyl)-1H-pyrrole-3-sulfonamide] | 0.5 to 5 µM
28 | N#Cc1ccc(NS(=O)(=O)c2c[nH]c(-c3c(Cl)cccc3Cl)c2)c(F)c1 [Cpd 270, N-(4-cyano-2-fluoro-phenyl)-5-(2,6-dichlorophenyl)-1H-pyrrole-3-sulfonamide] | 0.5 to 5 µM

Results, then the molecule that gave them:

Row | IC50 | SMILES
29 | < 0.5 µM | N#Cc1ccc(NS(=O)(=O)c2c[nH]cc2-c2cccc(F)c2)c(F)c1 [Cpd 230, N-(4-cyano-2-fluoro-phenyl)-4-(3-fluorophenyl)-1H-pyrrole-3-sulfonamide]
30 | 0.5 to 5 µM | N#Cc1ccc(NS(=O)(=O)c2c[nH]cc2-c2ccccc2F)c(F)c1 [Cpd 231, N-(4-cyano-2-fluoro-phenyl)-4-(2-fluorophenyl)-1H-pyrrole-3-sulfonamide]
31 | < 0.5 µM | O=S(=O)(Nc1cc(F)c(OC(F)F)cc1F)c1c[nH]c(-c2ccccc2)c1 [Cpd 232, N-[4-(difluoromethoxy)-2,5-difluoro-phenyl]-5-phenyl-1H-pyrrole-3-sulfonamide]
32 | < 0.5 µM | O=S(=O)(Nc1cc(F)c(C(F)(F)F)cc1F)c1c[nH]c(-c2cc(CO)ccc2F)c1 [Cpd 234, N-[2,5-difluoro-4-(trifluoromethyl)phenyl]-5-[2-fluoro-5-(hydroxymethyl)phenyl]-1H-pyrrole-3-sulfonamide]
33 | < 0.5 µM | N#Cc1ccc(NS(=O)(=O)c2c[nH]cc2C2=CCCC2)c(F)c1 [Cpd 238, N-(4-cyano-2-fluorophenyl)-4-(cyclopent-1-en-1-yl)-1H-pyrrole-3-sulfonamide]
34 | < 0.5 µM | N#Cc1ccc(NS(=O)(=O)c2c[nH]c(-c3ccccc3OC(F)F)c2)c(F)c1 [Cpd 244, N-(4-cyano-2-fluoro-phenyl)-5-[2-(difluoromethoxy)phenyl]-1H-pyrrole-3-sulfonamide]
35 | < 0.5 µM | O=S(=O)(Nc1cc(F)c(OC(F)(F)F)cc1F)c1c[nH]c(-c2ccccn2)c1 [Cpd 246, N-[2,5-difluoro-4-(trifluoromethoxy)phenyl]-5-(2-pyridyl)-1H-pyrrole-3-sulfonamide]
36 | < 0.5 µM | N#Cc1ccc(NS(=O)(=O)c2c[nH]c(-c3cc(F)ccc3Cl)c2)c(F)c1 [Cpd 256, 5-(2-chloro-5-fluoro-phenyl)-N-(4-cyano-2-fluoro-phenyl)-1H-pyrrole-3-sulfonamide]
37 | < 0.5 µM | COc1ccc(Cl)c(-c2cc(S(=O)(=O)Nc3ccc(C#N)cc3F)c[nH]2)c1 [Cpd 257, 5-(2-chloro-5-methoxy-phenyl)-N-(4-cyano-2-fluoro-phenyl)-1H-pyrrole-3-sulfonamide]
38 | < 0.5 µM | N#Cc1ccc(NS(=O)(=O)c2c[nH]c(-c3ccc(F)cc3Cl)c2)c(F)c1 [Cpd 258, 5-(2-chloro-4-fluoro-phenyl)-N-(4-cyano-2-fluoro-phenyl)-1H-pyrrole-3-sulfonamide]
39 | < 0.5 µM | N#Cc1ccc(NS(=O)(=O)c2c[nH]c(-c3cc(Cl)ccc3Cl)c2)c(F)c1 [Cpd 260, N-(4-cyano-2-fluoro-phenyl)-5-(2,5-dichlorophenyl)-1H-pyrrole-3-sulfonamide]
40 | < 0.5 µM | N#Cc1ccc(NS(=O)(=O)c2c[nH]c(-c3cccc(F)c3Cl)c2)c(F)c1 [Cpd 267, 5-(2-chloro-3-fluoro-phenyl)-N-(4-cyano-2-fluoro-phenyl)-1H-pyrrole-3-sulfonamide]
41 | < 0.5 µM | Cc1cc(-c2cc(S(=O)(=O)Nc3ccc(C#N)cc3F)c[nH]2)ccc1F [Cpd 269, N-(4-cyano-2-fluoro-phenyl)-5-(4-fluoro-3-methyl-phenyl)-1H-pyrrole-3-sulfonamide]
